Data reported in ChEMBL document CHEMBL1127122, “Neurotensin receptor binding and antinociceptive activity for lipophilic N-amido neurotensin(913) analogs” (Bioorg Med Chem Lett, 1993).
Non-standard residues stand in square brackets, D forms with d. Residues, ends and D or L forms follow the SMILES beside them. *: point of attachment. X1 = O=C(C(F)(F)C(F)(F)C(F)(F)C(F)(F)C(F)(F)C(F)(F)C(F)(F)F)*; Adamantane1carbonyl = O=C(C12CC3CC(CC(C3)C1)C2)*; Benzoyl(4-Ph) = O=C(c1ccc(-c2ccccc2)cc1)*; Benzoyl(4-tBu) = CC(C)(C)c1ccc(C(=O)*)cc1; Butanoyl(3,3-Me2) = CC(C)(C)CC(=O)*; Stearoyl = CCCCCCCCCCCCCCCCCC(=O)*; X3 = O=C1NC2CSC(CCCCC(=O)*)C2N1; Nicotinoyl = O=C(c1cccnc1)*; Orn = NCCC[C@H](N)C(=O)O; X2 = O=C(CC1CCC2CCCC21)*; X4 = O=C(CC1CC2CCC1C2)*; Boc = CC(C)(C)OC(=O)*; Piv = CC(C)(C)C(=O)*; Bz = O=C(c1ccccc1)*

Legend:
[1] = molecular target: Neurotensin receptor type 1 (Rattus norvegicus, UniProt P20789); assay: Binding affinity against rat neurotensin receptor.
Mus musculus [2] = assay: Analgesic activity in fasted male mice in phenylquinone writhing assay 10 min after i.c.v. administration.; type: functional
Mus musculus [3] = assay: Analgesic activity in fasted male mice in phenylquinone writhing assay 40 min after i.c.v. administration.; type: functional
Mus musculus [4] = assay: Analgesic activity in fasted male mice in phenylquinone writhing assay 5 min after i.c.v. administration.; type: functional
Mus musculus [5] = assay: Analgesic activity of i.v. administered compound in fasted male mice at 10 min. interval was determined using phenylquinone writhing assay; type: functional; settings: iv
Mus musculus [6] = assay: Analgesic activity of i.v. administered compound in fasted male mice at 5 min. interval was determined using phenylquinone writhing assay; type: functional; settings: iv
Mu-type opioid receptor = Mu-type opioid receptor (Cavia porcellus, UniProt P97266); assay: Compound was evaluated for binding affinity against mu receptor by opioid receptor binding assay: Inactive
[7] = molecular target: Kappa-type opioid receptor (Cavia porcellus, UniProt P41144); assay: Compound was evaluated for binding affinity against Opioid receptor kappa 1 by opioid receptor binding assay: Inactive
Kappa-type opioid receptor, sequence (P41144 whole entry): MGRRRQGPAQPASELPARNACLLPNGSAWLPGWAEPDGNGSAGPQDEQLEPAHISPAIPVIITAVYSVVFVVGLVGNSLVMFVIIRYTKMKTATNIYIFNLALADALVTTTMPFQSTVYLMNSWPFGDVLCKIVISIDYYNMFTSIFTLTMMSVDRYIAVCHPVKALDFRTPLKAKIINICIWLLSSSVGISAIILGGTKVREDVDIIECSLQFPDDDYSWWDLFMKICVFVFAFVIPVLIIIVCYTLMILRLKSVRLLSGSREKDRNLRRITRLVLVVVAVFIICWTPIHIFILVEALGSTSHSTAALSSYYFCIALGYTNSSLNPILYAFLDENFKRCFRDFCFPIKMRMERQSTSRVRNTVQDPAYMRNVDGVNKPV

Neurotensin receptor type 1, sequence (P20789 whole entry): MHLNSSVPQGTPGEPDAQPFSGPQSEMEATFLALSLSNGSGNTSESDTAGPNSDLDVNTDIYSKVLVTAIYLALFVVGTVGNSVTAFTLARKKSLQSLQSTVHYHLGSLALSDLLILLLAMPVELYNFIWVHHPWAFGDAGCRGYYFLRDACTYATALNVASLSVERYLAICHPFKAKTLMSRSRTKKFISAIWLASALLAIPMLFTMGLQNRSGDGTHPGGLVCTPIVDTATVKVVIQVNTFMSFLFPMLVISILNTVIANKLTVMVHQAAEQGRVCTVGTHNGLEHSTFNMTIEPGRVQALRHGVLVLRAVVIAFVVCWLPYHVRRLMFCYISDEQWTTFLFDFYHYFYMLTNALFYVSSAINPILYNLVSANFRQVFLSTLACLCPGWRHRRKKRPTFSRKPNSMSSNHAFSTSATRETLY
Mu-type opioid receptor, sequence (P97266 whole entry): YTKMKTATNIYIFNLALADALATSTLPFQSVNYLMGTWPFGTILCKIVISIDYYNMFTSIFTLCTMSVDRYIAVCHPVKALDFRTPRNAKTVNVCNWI

Ki [1]	Compound	ED50 (Mus musculus [2])	ED50 (Mus musculus [3])	ED50 (Mus musculus [4])	ED50 (Mus musculus [5])	ED50 (Mus musculus [6])	Ki (Mu-type opioid receptor)	Ki [7]
420 nM	CC[C@H](C)[C@H](NC(=O)[C@H](Cc1ccc(O)cc1)NC(=O)[C@@H]1CCCN1C(=O)[C@H](CCCCN)NC(=O)c1cccnc1)C(=O)N[C@@H](CC(C)C)C(=O)O (Nicotinoyl-KPYIL-OH) [listing 1 of 2 here]							
	Ac-KPYIL-OH [listing 1 of 2 here]	<50 ug mouse-1	<50 ug mouse-1	<50 ug mouse-1				
	CC[C@H](C)[C@H](NC(=O)[C@H](Cc1ccc(O)cc1)NC(=O)[C@@H]1CCCN1C(=O)[C@H](CCCCN)NC(=O)C(C)(C)C)C(=O)N[C@@H](CC(C)C)C(=O)O (Piv-KPYIL-OH) [listing 1 of 2 here]	0.29 ug mouse-1	0.7 ug mouse-1	0.28 ug mouse-1	15 mg/kg	15 mg/kg		
100 nM	CC[C@H](C)[C@H](NC(=O)[C@H](Cc1ccc(O)cc1)NC(=O)[C@@H]1CCCN1C(=O)[C@H](CCCCN)NC(=O)c1ccccc1)C(=O)N[C@@H](CC(C)C)C(=O)O (Bz-KPYIL-OH) [listing 1 of 2 here]							
540 nM	CC[C@H](C)[C@H](NC(=O)[C@H](Cc1ccc(O)cc1)NC(=O)[C@@H]1CCCN1C(=O)[C@H](CCCCN)NC(=O)CC1CCC2CCCC21)C(=O)N[C@@H](CC(C)C)C(=O)O (stereo not given in full) (X2-KPYIL-OH)	0.41 ug mouse-1	2.5 ug mouse-1	0.1 ug mouse-1	15 mg/kg	12 mg/kg		
	CC[C@H](C)[C@H](NC(=O)[C@H](Cc1ccc(O)cc1)NC(=O)[C@@H]1CCCN1C(=O)[C@@H](N)CCCN)C(=O)N[C@@H](CC(C)C)C(=O)O (H-[Orn]PYIL-OH) [listing 1 of 2 here]	20 ug mouse-1	67 ug mouse-1	23 ug mouse-1				
880 nM	CC[C@H](C)[C@H](NC(=O)[C@H](Cc1ccc(O)cc1)NC(=O)[C@@H]1CCCN1C(=O)[C@H](CCCCN)NC(=O)c1ccc(-c2ccccc2)cc1)C(=O)N[C@@H](CC(C)C)C(=O)O ({Benzoyl(4-Ph)}-KPYIL-OH) [listing 1 of 2 here]							
	H-KPYIL-OH	10 ug mouse-1	26 ug mouse-1	8 ug mouse-1	> 81 mg/kg	> 81 mg/kg		
290 nM	CC[C@H](C)[C@H](NC(=O)[C@H](Cc1ccc(O)cc1)NC(=O)[C@@H]1CCCN1C(=O)[C@H](CCCCN)NC(=O)CCCCC1SCC2NC(=O)NC21)C(=O)N[C@@H](CC(C)C)C(=O)O (stereo not given in full) (X3-KPYIL-OH) [listing 1 of 2 here]							
1000 nM	CC[C@H](C)[C@H](NC(=O)[C@H](Cc1ccc(O)cc1)NC(=O)[C@@H]1CCCN1C(=O)[C@H](CCCCN)NC(=O)CC1CC2CCC1C2)C(=O)N[C@@H](CC(C)C)C(=O)O (stereo not given in full) (X4-KPYIL-OH)	0.29 ug mouse-1	2.7 ug mouse-1	0.018 ug mouse-1	19 mg/kg	24 mg/kg		
	CC[C@H](C)[C@H](NC(=O)[C@H](Cc1ccc(O)cc1)NC(=O)[C@@H]1CCCN1C(=O)[C@H](CCCCN)NC(=O)c1ccc(C(C)(C)C)cc1)C(=O)N[C@@H](CC(C)C)C(=O)O ({Benzoyl(4-tBu)}-KPYIL-OH) [listing 1 of 2 here]	0.088 ug mouse-1	0.32 ug mouse-1	0.075 ug mouse-1	6.6 mg/kg	12 mg/kg		
	CC[C@H](C)[C@H](NC(=O)[C@H](Cc1ccc(O)cc1)NC(=O)[C@@H]1CCCN1C(=O)[C@H](CCCCN)NC(=O)C12CC3CC(CC(C3)C1)C2)C(=O)N[C@@H](CC(C)C)C(=O)O (Adamantane1carbonyl-KPYIL-OH)	0.22 ug mouse-1	0.71 ug mouse-1	0.15 ug mouse-1	2.8 mg/kg	2.2 mg/kg	> 10000 nM	> 10000 nM
	CC[C@H](C)[C@H](NC(=O)[C@H](Cc1ccc(O)cc1)NC(=O)[C@@H]1CCCN1C(=O)[C@H](CCCCN)NC(=O)OC(C)(C)C)C(=O)N[C@@H](CC(C)C)C(=O)O (Boc-KPYIL-OH)	0.11 ug mouse-1	0.2 ug mouse-1	0.02 ug mouse-1	6.5 mg/kg	3.1 mg/kg		
	CC[C@H](C)[C@H](NC(=O)[C@H](Cc1ccc(O)cc1)NC(=O)[C@@H]1CCCN1C(=O)[C@H](CCCCN)NC(=O)C(F)(F)C(F)(F)C(F)(F)C(F)(F)C(F)(F)C(F)(F)C(F)(F)F)C(=O)N[C@@H](CC(C)C)C(=O)O (X1-KPYIL-OH) [listing 1 of 2 here]	3.7 ug mouse-1	4.4 ug mouse-1	2.2 ug mouse-1	17 mg/kg	32 mg/kg		
680 nM	CC[C@H](C)[C@H](NC(=O)[C@H](Cc1ccc(O)cc1)NC(=O)[C@@H]1CCCN1C(=O)[C@H](CCCCN)NC(=O)CC(C)(C)C)C(=O)N[C@@H](CC(C)C)C(=O)O ({Butanoyl(3,3-Me2)}-KPYIL-OH) [listing 1 of 2 here]							
520 nM	CC[C@H](C)[C@H](NC(=O)[C@H](Cc1ccc(O)cc1)NC(=O)[C@@H]1CCCN1C(=O)[C@@H](N)CCCN)C(=O)N[C@@H](CC(C)C)C(=O)O (H-[Orn]PYIL-OH) [listing 2 of 2 here]							
190 nM	CC[C@H](C)[C@H](NC(=O)[C@H](Cc1ccc(O)cc1)NC(=O)[C@@H]1CCCN1C(=O)[C@H](CCCCN)NC(=O)C(C)(C)C)C(=O)N[C@@H](CC(C)C)C(=O)O (Piv-KPYIL-OH) [listing 2 of 2 here]							
	CCCCCCCCCCCCCCCCCC(=O)N[C@@H](CCCCN)C(=O)N1CCC[C@H]1C(=O)N[C@@H](Cc1ccc(O)cc1)C(=O)N[C@H](C(=O)N[C@@H](CC(C)C)C(=O)O)[C@@H](C)CC (Stearoyl-KPYIL-OH) [listing 1 of 2 here]	>50 ug mouse-1	>50 ug mouse-1	38 ug mouse-1				
	CC[C@H](C)[C@H](NC(=O)[C@H](Cc1ccc(O)cc1)NC(=O)[C@@H]1CCCN1C(=O)[C@H](CCCCN)NC(=O)CCCCC1SCC2NC(=O)NC21)C(=O)N[C@@H](CC(C)C)C(=O)O (stereo not given in full) (X3-KPYIL-OH) [listing 2 of 2 here]	2 ug mouse-1	8.3 ug mouse-1	0.86 ug mouse-1	≥ 81 mg/kg	> 81 mg/kg		
220 nM	CC[C@H](C)[C@H](NC(=O)[C@H](Cc1ccc(O)cc1)NC(=O)[C@@H]1CCCN1C(=O)[C@H](CCCCN)NC(=O)c1ccc(C(C)(C)C)cc1)C(=O)N[C@@H](CC(C)C)C(=O)O ({Benzoyl(4-tBu)}-KPYIL-OH) [listing 2 of 2 here]							
	CC[C@H](C)[C@H](NC(=O)[C@H](Cc1ccc(O)cc1)NC(=O)[C@@H]1CCCN1C(=O)[C@H](CCCCN)NC(=O)c1ccccc1)C(=O)N[C@@H](CC(C)C)C(=O)O (Bz-KPYIL-OH) [listing 2 of 2 here]	0.16 ug mouse-1	1.5 ug mouse-1	0.0088 ug mouse-1	5.5 mg/kg	6.6 mg/kg		
	CC[C@H](C)[C@H](NC(=O)[C@H](Cc1ccc(O)cc1)NC(=O)[C@@H]1CCCN1C(=O)[C@H](CCCCN)NC(=O)CC(C)(C)C)C(=O)N[C@@H](CC(C)C)C(=O)O ({Butanoyl(3,3-Me2)}-KPYIL-OH) [listing 2 of 2 here]	0.1 ug mouse-1	1.2 ug mouse-1	0.095 ug mouse-1	4.9 mg/kg	6.2 mg/kg		
	CC[C@H](C)[C@H](NC(=O)[C@H](Cc1ccc(O)cc1)NC(=O)[C@@H]1CCCN1C(=O)[C@H](CCCN)NC(=O)OC(C)(C)C)C(=O)N[C@@H](CC(C)C)C(=O)O (Boc-[Orn]PYIL-OH)	0.044 ug mouse-1	0.69 ug mouse-1	0.00084 ug mouse-1	2 mg/kg	0.85 mg/kg		
	CC[C@H](C)[C@H](NC(=O)[C@H](Cc1ccc(O)cc1)NC(=O)[C@@H]1CCCN1C(=O)[C@H](CCCCN)NC(=O)c1ccc(-c2ccccc2)cc1)C(=O)N[C@@H](CC(C)C)C(=O)O ({Benzoyl(4-Ph)}-KPYIL-OH) [listing 2 of 2 here]	2.8 ug mouse-1	50 ug mouse-1	1.7 ug mouse-1	13 mg/kg	< 27 mg/kg		
> 10000 nM	CCCCCCCCCCCCCCCCCC(=O)N[C@@H](CCCCN)C(=O)N1CCC[C@H]1C(=O)N[C@@H](Cc1ccc(O)cc1)C(=O)N[C@H](C(=O)N[C@@H](CC(C)C)C(=O)O)[C@@H](C)CC (Stearoyl-KPYIL-OH) [listing 2 of 2 here]							
180 nM	CC[C@H](C)[C@H](NC(=O)[C@H](Cc1ccc(O)cc1)NC(=O)[C@@H]1CCCN1C(=O)[C@H](CCCN)NC(=O)C12CC3CC(CC(C3)C1)C2)C(=O)N[C@@H](CC(C)C)C(=O)O (Adamantane1carbonyl-[Orn]PYIL-OH) [listing 1 of 2 here]							
2100 nM	Ac-KPYIL-OH [listing 2 of 2 here]							
	CC[C@H](C)[C@H](NC(=O)[C@H](Cc1ccc(O)cc1)NC(=O)[C@@H]1CCCN1C(=O)[C@H](CCCCN)NC(=O)c1cccnc1)C(=O)N[C@@H](CC(C)C)C(=O)O (Nicotinoyl-KPYIL-OH) [listing 2 of 2 here]	0.016 ug mouse-1	0.3 ug mouse-1	0.0016 ug mouse-1	3 mg/kg	3.6 mg/kg		
2100 nM	CC[C@H](C)[C@H](NC(=O)[C@H](Cc1ccc(O)cc1)NC(=O)[C@@H]1CCCN1C(=O)[C@H](CCCCN)NC(=O)C(F)(F)C(F)(F)C(F)(F)C(F)(F)C(F)(F)C(F)(F)C(F)(F)F)C(=O)N[C@@H](CC(C)C)C(=O)O (X1-KPYIL-OH) [listing 2 of 2 here]							
	CC[C@H](C)[C@H](NC(=O)[C@H](Cc1ccc(O)cc1)NC(=O)[C@@H]1CCCN1C(=O)[C@H](CCCN)NC(=O)C12CC3CC(CC(C3)C1)C2)C(=O)N[C@@H](CC(C)C)C(=O)O (Adamantane1carbonyl-[Orn]PYIL-OH) [listing 2 of 2 here]	0.45 ug mouse-1	3.6 ug mouse-1	0.13 ug mouse-1	11 mg/kg	4.8 mg/kg		
